The values that follow come from US12162901B2, “N-acetylated sialic acids and related sialosides” (priority 2016, dated 2024).

For series [1], the system named is BJA-B K20 cells. The experiment in a line: Feeding of free sialic acids to BJA-B K20 cells, PToV probes, flow cytometry. It counts as cell-based, human. In general terms: Flow cytometry measures light scatter and fluorescence of single cells or particles in a stream.
Series [2] concerns BJA-B K20 cells. The experiment in a line: Feeding of free sialic acids to BJA-B K20 cells, DMB derivatization and HPLC of membrane sialic acids. The settings on record: 1 mM for 3 days; sialic acids released with Vibrio cholerae neuraminidase.
Series [3] deals with human CD22-Fc/Siglec-2. The experiment in a line: Feeding of free sialic acids to BJA-B K20 cells, probing with human CD22-Fc, flow cytometry. It counts as cell-based. To be noted: 3 mM, 3 days of feeding. The protocol: Cell Culture and Sugar Supplementation.
Flow Cytometry. Cells were washed with PBS and incubated with 10 μg/mL of PToV probes in PBS with 1% BSA and 10 mM EDTA for 30 minutes on ice. Subsequently, cells were washed with PBS and incubated with PE goat anti-human IgG antibody for 30 minutes on ice. After an additional washing step, the cells were analyzed by FACSCalibur (BD).
After 3 days of feeding, BJA-B K20 cells were probed with human CD22-Fc/Siglec-2 to detect ligands (FIG. 7). […] However, when the cells were grown in the presence of Neu5Ac9NAc, the expression of the CD22 ligand was minimal (FIG. 7C). […] This supports previous observations that human CD22-Fc recognizes α2-6-linked sialosides with Neu5Ac or N-glycolylneuraminic acid (Neu5Gc) as the preferred naturally existing sialic acid form and 9-O-acetyl modification on sialic acid blocks the binding.

The test system of series [4] is human Siglec-9-Fc (hSiglec-9). The experiment in a line: Sialoglycan microarray binding of human Siglec-9-Fc. The settings on record: without esterase treatment (FIG. 3A). On the procedure:
The synthesized glycan Neu5Ac9NAcα3Galβ4GlcβProNH2 was used in a glycan library for glycan microarray studies. Glycan microarrays were fabricated using epoxide-derivatized slides (Corning by Thermo Fisher Scientific) and Arrayit SpotBot® Extreme Microarray Spotter. The arrays were printed with Stealth SMP3 microarray spotting pins from ArrayIt (Sunnyvale, CA, USA) generating 100 μm diameter spots. 4 pins were used; with each pin printing 4 replicate spots/well. The glycoconjugates were prepared at 100 μM concentration in an optimized printing buffer (300 mM phosphate buffer, pH 8.4). They were then distributed into a 384-well source plate in 20 μL per well. To monitor printing quality, 4 replicate-wells of human IgG (Jackson ImmunoResearch) was used at 100 μg/ml (in PBS) for each printing-pin. One complete array was printed on each slide (within approx 12 hour/˜28 slides). The humidity level in the arraying chamber was maintained at about 60-65% during printing. Printed slides were left on spotter deck overnight, allowing humidity to drop to ambient levels. Printed glycan microarray slides were blocked by 50° C. pre-warmed blocking solution (0.1 M Tris-HCl, 0.05 M ethanolamine, pH 9.0, 1 h). They were then washed twice with 50° C. pre-warmed water and dried. Slides were packed, vacuum-sealed and stored at RT until used.
(§1) To assure the quality of the printed slides, one or two slides were used for quality control using antibodies, lectins and serum samples with known glycan binding specificity. For glycan array binding, slides were fitted in a multi-well microarray hybridization cassette (AHC4X8S, ArrayIt, Sunnyvale, CA, USA) to divide into 8 subarrays. The subarrays were blocked with Ovalbumin (1% w/v) in PBS (pH 7.4) for 1 h at RT, with gentle shaking. […] The data were further analyzed with Excel. […] The binding specificity to glycoconjugates for each protein was plotted based on the RFU (Relative Fluorescence Units), average fluorescence value for 4 replicates, versus glycan IDs. The standard deviations were calculated and the error bars were found for each glycan binding. […]

Series [5] has as its target T1, human cytosolic sialidase hNEU2 (Homo sapiens, UniProt Q9Y3R4).
T1 construct: made in house
The experiment in a line: Sialidase substrate specificity of Leg glycosides (HPLC/capillary electrophoresis), hNEU2. The class given is biochemical. To be noted: 37° C., 16 hs, pH 5.0.

The test system of series [6] is A. ureafaciens sialidase. The experiment in a line: Sialidase substrate specificity of Leg glycosides (HPLC/capillary electrophoresis), A. ureafaciens sialidase. The class given is biochemical, Arthrobacter ureafaciens. The settings on record: pH 5.5.
The target of series [7] is T2, wild-type PmST1 (α2-3-sialidase activity) (Pasteurella multocida, UniProt Q15KI8).
T2 construct: made in house
The experiment in a line: Sialidase substrate specificity of Leg glycosides (HPLC/capillary electrophoresis), PmST1. The settings on record: 37° C., 16 hs, CMP (0.4 mM), pH 5.5. The class given is biochemical.

Series [8] concerns the target C. perfringens sialidase (CpNanH) (Clostridium perfringens, UniProt P10481). The class given is biochemical. The settings on record: 37° C., 16 hs, pH 5.0.
The target in series [9] is T3, BiNanH2 (Bifidobacterium longum, UniProt A0ACD7UU12).
T3 sequence (A0ACD7UU12 1-394): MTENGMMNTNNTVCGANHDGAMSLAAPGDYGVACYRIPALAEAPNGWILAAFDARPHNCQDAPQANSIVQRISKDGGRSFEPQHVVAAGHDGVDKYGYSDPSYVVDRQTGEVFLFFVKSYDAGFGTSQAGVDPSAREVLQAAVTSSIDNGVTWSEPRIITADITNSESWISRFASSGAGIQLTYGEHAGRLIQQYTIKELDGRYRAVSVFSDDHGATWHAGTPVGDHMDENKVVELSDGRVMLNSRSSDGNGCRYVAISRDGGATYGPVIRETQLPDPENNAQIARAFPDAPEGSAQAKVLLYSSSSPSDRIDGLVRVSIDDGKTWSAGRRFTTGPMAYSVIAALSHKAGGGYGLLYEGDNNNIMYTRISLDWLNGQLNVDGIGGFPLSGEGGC
The experiment in a line: Sialidase substrate specificity of Leg glycosides (HPLC/capillary electrophoresis), BiNanH2. It counts as biochemical, Bifidobacterium infantis. The settings on record: 37° C., 16 hs, pH 5.0.

For series [10], the target named is T4, V. cholerae sialidase (Vibrio cholerae serotype O1, UniProt P0C6E9).
T4 construct: purchased Roche
The experiment in a line: Sialidase substrate specificity of Leg glycosides (HPLC/capillary electrophoresis), V. cholerae sialidase. It counts as biochemical. The settings on record: pH 5.5.

Series [11] concerns the target T5, SpNanA (Streptococcus pneumoniae, UniProt P62575).
T5 construct: made in house
The experiment in a line: Sialidase substrate specificity of Leg glycosides (HPLC/capillary electrophoresis), SpNanA. It counts as biochemical. The settings on record: 37° C., 16 hs, pH 6.0.

Series [12] concerns the target SpNanC (Streptococcus pneumoniae, UniProt A0A0H2UQE4). The experiment in a line: Sialidase substrate specificity of Leg glycosides (HPLC/capillary electrophoresis), SpNanC. The class given is biochemical. To be noted: 37° C., 16 hs, pH 6.5.
The target of series [13] is T6, SpNanB (Streptococcus pneumoniae serotype 4, UniProt Q54727, E68D/K536E/K577E/N393D/S59P).
T6 construct: made in house
The experiment in a line: Sialidase substrate specificity of Leg glycosides (HPLC/capillary electrophoresis), SpNanB. It counts as biochemical. The settings on record: 37° C., 16 hs, pH 6.0.

In series [14] the test system is PToV-P4-Fc (esterase active). The experiment in a line: Treatment of glycan microarray with esterase active PToV, then probe binding. It counts as biochemical, porcine torovirus. To be noted: 20 μg/mL PToV-P4-Fc (esterase active), 2 h, RT; FIG. 3B vs FIG. 3A. The protocol:
as §1, with “shaking. For the esterase activity studies on the array, after removing the blocking solution, slides were first treated with 20 μg/mL PToV-P4-Fc (esterase active) in blocking buffer for 2 h at RT and then washed with PBS in 0.1% Tween 20 and then PBS (10 min/wash with shaking). Subsequently, diluted protein samples in blocking solution with various concentrations were added to each subarray (both esterase treated and non-treated slides). After incubating the protein samples for 2 h at RT with gentle shaking, the slides were washed with PBS in 0.1% Tween 20 and then PBS (10 min/wash with shaking).” for “shaking.”

In series [15] the test system is porcine torovirus hemagglutinin-esterase (PToV-P4-Fc, esterase inactivated). The experiment in a line: Sialoglycan microarray binding of PToV-P4-Fc (esterase inactive). The settings on record: without esterase treatment (FIG. 3A).
Series [16] is described as follows: De-O-acetylation of 9-OAc glycan during glycan microarray process (DMB derivatization, HPLC). The class given is physicochemical.

T1 sequence (Q9Y3R4 whole entry): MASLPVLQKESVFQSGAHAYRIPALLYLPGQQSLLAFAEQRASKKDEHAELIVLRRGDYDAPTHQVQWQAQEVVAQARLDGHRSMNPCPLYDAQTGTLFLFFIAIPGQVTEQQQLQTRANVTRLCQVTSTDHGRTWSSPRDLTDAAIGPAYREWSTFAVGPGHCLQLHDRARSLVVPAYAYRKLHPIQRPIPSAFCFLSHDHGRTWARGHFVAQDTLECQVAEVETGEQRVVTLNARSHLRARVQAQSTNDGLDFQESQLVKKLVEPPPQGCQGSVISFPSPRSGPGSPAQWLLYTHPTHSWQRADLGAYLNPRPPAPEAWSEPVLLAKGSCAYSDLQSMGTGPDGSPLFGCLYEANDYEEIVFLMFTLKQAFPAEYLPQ

On to `CC(=O)N[C@H]1[C@H]([C@H](O)[C@H](O)COC(C)=O)OC(O)(C(=O)O)C[C@@H]1O` (stereo partly drawn) [Neu5,9Ac2, 9-O-acetyl-N-acetylneuraminic acid], for which the “turnover on cell surface” value in [1] (1 mM for two days, then sugar removed, monitored for 4 days with PToV (esterase inactive) probe) was “faster than that of Neu5Ac9NAc”. The “cell surface incorporation detected with PToV probe” value in series [1] (1 mM free sialic acid, three days of feeding) is “detected on the cell surface”. For the same compound, the “incorporation on the cell membrane (DMB-HPLC)” value in [2] is listed as “showed incorporation”. Besides, the “expression of CD22 ligand on fed cells” value in series [3] is “between the two”.

In the case of `CC(=O)N[C@H]1[C@H]([C@H](O)[C@H](O)CO)O[C@@](O[C@H]2[C@@H](O)[C@@H](CO)O[C@@H](O[C@H]3[C@H](O)[C@@H](O)[C@H](OCCCN)O[C@@H]3CO)[C@@H]2O)(C(=O)O)C[C@@H]1O` [Neu5Acα3Galβ4GlcβProNH2], the “binding of hSiglec-9 on glycan microarray” value in series [4] was “prefers binding”.

Take `C[C@@H](O)[C@@H](N=[N+]=[N-])C1O[C@@](OC2C(O)[C@H](Oc3ccc([N+](=O)[O-])cc3)OC(CO)[C@@H]2O)(C(=O)O)CC(O)[C@H]1N=[N+]=[N-]` (stereo partly drawn) [3-13, Leg5,7diN3α2-3GalβpNP]: the “activity of hNEU2 for the compound” value in series [5] is given as “did not show activity”. Also, the “activity of A. ureafaciens sialidase for the compound” value in [6] is listed as “did not show activity”. Also, the “substrate for the α2-3-sialidase activity of wild-type PmST1” value in [7] is on record as “not”. The “activity of C. perfringens sialidase (CpNanH) for the compound” value in series [8] is on record as “did not show activity”. Besides, the “activity of BiNanH2 for the compound” value in [9] is recorded as “did not show activity”. In addition, the “activity of V. cholerae sialidase for the compound” value in series [10] is on record as “did not show activity”. Further, the “activity of SpNanA for the compound” value in series [11] is “did not show activity”. The “activity of SpNanC for the compound” value in series [12] is recorded as “did not show activity”. In addition, the “activity of SpNanB for the compound” value in [13] is “did not show activity”.

For the compound `CC(=O)N[C@H]1[C@H]([C@H](O)[C@H](O)COC(C)=O)O[C@@](O[C@H]2[C@@H](O)[C@@H](CO)O[C@@H](O[C@H]3[C@H](O)[C@@H](O)[C@H](OCCCN)O[C@@H]3CO)[C@@H]2O)(C(=O)O)C[C@@H]1O` [Neu5,9Ac2α3Galβ4GlcβProNH2], the “stability of the 9-modification towards esterase active PToV” value in [14] is “esterase lability of 9OAc”. The “binding of PToV on glycan microarray” value in series [15] is reported as “slightly stronger binding to the 9OAc derivative”. Besides, the “binding of hSiglec-9 on glycan microarray” value in series [4] is reported as “observable binding”. Further, in series [16] (AUS treatment followed by DMB derivatization at low temperature (FIG. 2B)), the “loss of the OAc group” value amounted to 1.5%. Moreover, in series [16] (release of sialic acids with acetic acid, DMB derivatization, HPLC (FIG. 2A)), the “OAc group lost from the 9-position of Neu5Ac or migrated to 7- and 8-positions” value is reported as approximately 45%. Besides, the “sialic acid de-O-acetylated” value in [16] (standard blocking condition (ethanolamine in Tris-HCl buffer, pH 9.0)) is given as “about 5%”. In series [16] (stock solution after three months at −20° C. and a few freeze-thaw cycles), the OAc group released came to 4%. In series [16] (storage in phosphate buffer (pH 8.4) at room temperature), the “loss of OAc” value was “about 3%”.

With `CC(=O)N[C@H]1[C@H]([C@H](O)[C@H](O)CO)OC(O)(C(=O)O)C[C@@H]1O` (stereo partly drawn) [Neu5Ac, N-acetylneuraminic acid], in series [2], the “incorporation on the cell membrane (DMB-HPLC)” value is listed as “showed incorporation”. Also, the “expression of CD22 ligand on fed cells” value in [3] was “high expression of CD22 ligand”.

Regarding `CC(=O)NC[C@@H](O)[C@@H](O)[C@@H]1O[C@@](O[C@H]2[C@@H](O)[C@@H](CO)O[C@@H](O[C@H]3[C@H](O)[C@@H](O)[C@H](OCCCN)O[C@@H]3CO)[C@@H]2O)(C(=O)O)C[C@H](O)[C@H]1NC(C)=O` [Neu5Ac9NAcα3Galβ4GlcβProNH2, 3-Aminopropyl O-(5,9-Diacetamido-3,5,9-trideoxy-D-glycero-α-D-galacto-2-nonulopyranosylonic acid)-(2→3)-O-β-D-galactopyranosyl-(1→4)-β-D-glucopyranoside], in series [14], the “stability of the 9-modification towards esterase active PToV” value is “stability of 9NAc”. In [15], the “binding of PToV on glycan microarray” value is recorded as “prefer binding”. In addition, the “binding of hSiglec-9 on glycan microarray” value in [4] is recorded as “observable binding”.
